Results from US20250170248A1, “SMARCA DEGRADERS AND USES THEREOF” (Kymera Therapeutics, Inc., priority 2021, published 2025).

Experiments:
Type in all cases: cell-based
SMARCA2 [1] = molecular target: T1, SMARCA2 (Homo sapiens, UniProt P51531); experiment: MSD SMARCA2 degradation in A549 cell line; conditions: 24 h; for Dmax: A549, A549 cells; for DC50: A549 cells, read-out: SMARCA2 MSD A549 degradation 24 h: Average external-Abs DC50
Summary of the method: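 A549 cells treated 24 h with compound, 3-fold series from 1000 nM. Lysates captured on MSD plates and SMARCA2 quantified with anti-SMARCA2 and SULFO-TAG secondary antibodies (electrochemiluminescence). DC50 and Dmax (% degradation at 24 h) reported as letter bins.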

SMARCA4 = molecular target: T2, SMARCA4 (Homo sapiens, UniProt P51532); experiment: SMARCA4 Western blot degradation in MV4-11 cells; conditions: 24 h; for Dmax: MV4-11, MV4-11 cells, read-out: SMARCA4 MSD MV411 degradation 24 h: average Dmax %; for DC50: MV4-11 cells, read-out: SMARCA4 MSD MV411 degradation 24 h: Mean external-Abs DC50
T2 construct: SMARCA2/SMARCA4 protein degradation selectivity in MV4-11 cells; endogenous in cells; host or cells: MV4-11
T2 sequence (P51532 whole entry): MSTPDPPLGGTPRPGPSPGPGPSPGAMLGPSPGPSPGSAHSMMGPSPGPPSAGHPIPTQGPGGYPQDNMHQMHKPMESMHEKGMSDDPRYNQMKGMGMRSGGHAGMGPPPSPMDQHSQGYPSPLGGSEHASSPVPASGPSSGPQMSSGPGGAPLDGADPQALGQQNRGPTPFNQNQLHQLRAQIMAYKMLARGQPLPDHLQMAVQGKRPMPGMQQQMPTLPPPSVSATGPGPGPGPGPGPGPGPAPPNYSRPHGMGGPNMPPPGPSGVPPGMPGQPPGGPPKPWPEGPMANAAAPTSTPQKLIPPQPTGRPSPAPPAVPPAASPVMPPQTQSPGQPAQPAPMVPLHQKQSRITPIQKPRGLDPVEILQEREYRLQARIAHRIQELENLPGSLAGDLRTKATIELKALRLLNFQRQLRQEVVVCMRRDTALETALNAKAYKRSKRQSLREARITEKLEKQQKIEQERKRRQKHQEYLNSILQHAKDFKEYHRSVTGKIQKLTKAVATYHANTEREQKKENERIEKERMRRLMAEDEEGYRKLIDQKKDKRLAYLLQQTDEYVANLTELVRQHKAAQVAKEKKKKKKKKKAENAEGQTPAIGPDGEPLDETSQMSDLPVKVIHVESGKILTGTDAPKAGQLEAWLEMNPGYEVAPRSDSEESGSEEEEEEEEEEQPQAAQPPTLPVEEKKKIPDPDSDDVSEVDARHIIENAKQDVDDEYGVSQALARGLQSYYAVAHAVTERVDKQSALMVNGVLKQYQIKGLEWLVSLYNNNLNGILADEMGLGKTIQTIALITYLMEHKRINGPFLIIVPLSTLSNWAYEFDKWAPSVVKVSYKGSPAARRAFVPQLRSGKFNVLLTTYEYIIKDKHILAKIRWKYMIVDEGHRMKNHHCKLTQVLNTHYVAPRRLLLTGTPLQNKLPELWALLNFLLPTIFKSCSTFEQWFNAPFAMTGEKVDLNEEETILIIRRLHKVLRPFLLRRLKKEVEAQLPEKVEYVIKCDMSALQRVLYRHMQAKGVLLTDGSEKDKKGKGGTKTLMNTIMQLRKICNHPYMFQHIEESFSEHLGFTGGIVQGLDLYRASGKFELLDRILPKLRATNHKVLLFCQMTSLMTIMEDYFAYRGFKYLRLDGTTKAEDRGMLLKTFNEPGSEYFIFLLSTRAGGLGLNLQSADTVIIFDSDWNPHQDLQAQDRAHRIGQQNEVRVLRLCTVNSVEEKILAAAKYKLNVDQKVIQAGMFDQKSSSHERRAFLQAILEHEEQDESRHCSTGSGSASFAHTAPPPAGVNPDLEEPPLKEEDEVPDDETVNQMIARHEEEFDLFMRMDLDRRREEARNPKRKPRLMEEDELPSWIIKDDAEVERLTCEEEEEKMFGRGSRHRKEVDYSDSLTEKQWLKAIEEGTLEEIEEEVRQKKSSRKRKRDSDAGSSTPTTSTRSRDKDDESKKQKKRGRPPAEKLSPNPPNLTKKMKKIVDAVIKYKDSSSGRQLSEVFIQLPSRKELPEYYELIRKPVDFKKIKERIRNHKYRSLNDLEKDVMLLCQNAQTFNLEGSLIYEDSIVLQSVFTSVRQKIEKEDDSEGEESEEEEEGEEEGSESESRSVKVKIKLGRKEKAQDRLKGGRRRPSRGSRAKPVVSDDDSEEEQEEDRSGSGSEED
Summary of the method: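 24 h compound exposure, MV4-11; RIPA lysates → SDS-PAGE → NC membrane; anti-SMARCA2/BRM, anti-BRG1, β-actin loading control; LI-COR fluorescence read. DC50 and Dmax at 24 h reported as letter bins.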

SMARCA2 [2] = molecular target: T1, SMARCA2; experiment: SMARCA2 Western blot degradation in MV4-11 cells; parameters: SMARCA2/SMARCA4 protein degradation selectivity in MV4-11 cells; endogenous in cells; host or cells: MV4-11; conditions: for Dmax: MV4-11, MV4-11 cells, read-out: SMARCA2 MSD MV411 degradation 24 h: average Dmax %; for Dmax / DC50: 24 h; for DC50 / Selectivity in MV411: MV4-11 cells; for DC50: read-out: SMARCA2 MSD MV411 degradation 24 h: Mean external-Abs DC50; for Selectivity in MV411: SMARCA2/4 selectivity

T1 sequence (P51531 whole entry): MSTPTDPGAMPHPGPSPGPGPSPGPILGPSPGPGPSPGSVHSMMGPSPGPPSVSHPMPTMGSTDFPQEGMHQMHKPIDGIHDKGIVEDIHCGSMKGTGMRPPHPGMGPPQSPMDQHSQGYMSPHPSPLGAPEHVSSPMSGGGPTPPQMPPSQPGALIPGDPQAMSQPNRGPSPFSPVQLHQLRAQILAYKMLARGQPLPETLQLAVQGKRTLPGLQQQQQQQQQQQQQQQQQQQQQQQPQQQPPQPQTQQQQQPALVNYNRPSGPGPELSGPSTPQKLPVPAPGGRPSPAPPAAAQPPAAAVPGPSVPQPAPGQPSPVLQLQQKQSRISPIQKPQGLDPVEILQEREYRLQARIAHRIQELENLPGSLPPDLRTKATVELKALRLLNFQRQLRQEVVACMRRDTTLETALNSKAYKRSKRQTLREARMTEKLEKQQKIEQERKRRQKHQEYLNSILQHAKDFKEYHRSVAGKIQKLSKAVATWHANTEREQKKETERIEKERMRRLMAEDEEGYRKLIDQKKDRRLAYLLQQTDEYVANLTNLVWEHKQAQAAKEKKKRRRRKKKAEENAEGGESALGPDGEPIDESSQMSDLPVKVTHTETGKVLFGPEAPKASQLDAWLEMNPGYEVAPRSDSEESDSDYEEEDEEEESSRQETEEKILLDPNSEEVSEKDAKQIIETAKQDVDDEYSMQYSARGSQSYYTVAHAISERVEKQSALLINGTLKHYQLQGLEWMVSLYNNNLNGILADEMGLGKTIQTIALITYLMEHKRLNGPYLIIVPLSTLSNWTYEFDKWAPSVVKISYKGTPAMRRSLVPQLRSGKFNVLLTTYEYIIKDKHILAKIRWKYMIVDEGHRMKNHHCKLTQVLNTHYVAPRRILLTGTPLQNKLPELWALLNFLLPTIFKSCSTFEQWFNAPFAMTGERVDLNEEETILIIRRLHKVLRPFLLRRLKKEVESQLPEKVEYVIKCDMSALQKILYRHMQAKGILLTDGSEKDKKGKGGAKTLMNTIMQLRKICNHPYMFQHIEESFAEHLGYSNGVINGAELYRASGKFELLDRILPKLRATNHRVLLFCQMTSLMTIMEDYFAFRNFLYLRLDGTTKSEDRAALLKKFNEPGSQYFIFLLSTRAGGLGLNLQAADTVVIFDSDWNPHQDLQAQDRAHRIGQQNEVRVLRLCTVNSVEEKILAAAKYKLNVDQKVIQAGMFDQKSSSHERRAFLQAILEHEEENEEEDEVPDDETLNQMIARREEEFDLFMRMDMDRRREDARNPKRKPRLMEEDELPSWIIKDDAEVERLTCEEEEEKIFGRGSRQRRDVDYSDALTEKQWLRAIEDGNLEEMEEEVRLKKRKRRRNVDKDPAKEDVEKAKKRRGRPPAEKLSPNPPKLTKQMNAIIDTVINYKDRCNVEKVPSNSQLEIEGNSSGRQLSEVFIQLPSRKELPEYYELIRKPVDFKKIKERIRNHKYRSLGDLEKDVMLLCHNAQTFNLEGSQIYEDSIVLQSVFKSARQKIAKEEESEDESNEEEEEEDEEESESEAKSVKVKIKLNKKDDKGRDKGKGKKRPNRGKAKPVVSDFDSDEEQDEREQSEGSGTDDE

Dmax (SMARCA2 [1]) [%] | DC50 (SMARCA2 [1]) [nM] | Dmax (SMARCA4) [%] | DC50 (SMARCA4) [nM] | Dmax (SMARCA2 [2]) [%] | DC50 (SMARCA2 [2]) [nM] | Selectivity in MV411 (SMARCA2 [2]) | SMILES
> 90 | 10 to 50 | 70 to 90 | > 100 | 70 to 90 | 10 to 100 | C (C (10-100 fold)) | C#Cc1cc(F)c(CNC(=O)[C@@H]2C[C@@H](O)CN2C(=O)[C@@H](NC(=O)N2CC3(CC(N4CCC(c5cnc(N6CCc7[nH]c8nnc(-c9ccccc9O)cc8c7[C@H]6C)nc5)CC4)C3)C2)C(C)(C)C)cc1F [I-403]
> 90 | 10 to 50 | 70 to 90 | > 100 | 70 to 90 | 1 to 10 | C (C (10-100 fold)) | C#Cc1ccc(CNC(=O)[C@@H]2C[C@@H](O)CN2C(=O)[C@@H](NC(=O)N2CC3(CC(CN4CCC(c5cnc(N6CCc7[nH]c8nnc(-c9ccccc9O)cc8c7[C@H]6C)nc5)CC4)C3)C2)C(C)(C)C)cc1 [I-410]
> 90 | 10 to 50 | > 90 | 10 to 100 | > 90 | 1 to 10 | C (C (10-100 fold)) | C#Cc1ccc(CNC(=O)[C@@H]2C[C@@H](O)CN2C(=O)[C@@H](NC(=O)N2CC3(CC(CCN4CCC(c5cnc(N6CCc7[nH]c8nnc(-c9ccccc9O)cc8c7[C@H]6C)nc5)CC4)C3)C2)C(C)(C)C)cc1 [I-416]
